# In patent US7432350B2 (priority 2002, dated 2008):
# Read-outs that look alike come from different tables or passages of the source.
# How the values were obtained:
# [1] = target: S. cerevisiae ACCase BC domain, wild type (pCS16), N-terminal His-tag (Saccharomyces cerevisiae, UniProt Q00955); test: biochemical; assay type: binding
# [2] = target: full-length Ustilago ACCase (pCS11 protein), C-terminal His-tag (Mycosarcoma maydis, UniProt A0A0D1DYD5); test: biochemical
# [3] = target: Phytophthora infestans ACCase BC domain, amino acids 1-555 (pCS15) (Phytophthora infestans, UniProt D0NZ18); test: biochemical; assay type: binding
# [4] = target: Magnaporthe grisea ACCase BC domain (pCS17), N-terminal His-tag (Pyricularia oryzae, UniProt G4N2L8); test: biochemical; assay type: binding
# [5] = target: human ACC1 BC domain (pCS19), C-terminal His-tag (Homo sapiens, UniProt Q13085, Q299K); test: biochemical; assay type: binding
# [6] = target: Ustilago maydis ACCase BC domain (pCS8); test: 3H-soraphen saturation binding assay, pCS8; conditions: non-linear regression fit, one site, read-out: KD of the soraphen-pCS8 interaction
# [7] = target: full length Ustilago ACCase (pCS11); test: 3H-soraphen binding, full-length pCS11; set-up: species or system Ustilago maydis
# [8] = system: Ustilago BC domain (pCS8); test: soraphen off-rate determination (dissociation experiments); assay type: binding, Ustilago maydis
# Description: Soraphen off-rate determination. […] Therefore, soraphen dissociation experiments were performed to determine the off-rate for the binding interaction using the Ustilago BC domain (pCS8). 53.6 pmol pCS8 protein was incubated with 30 pmol ^3H-soraphen in a volume of 2 ml for 15 min. The protein with bound soraphen was separated from free soraphen on NAP5 columns and eluted in a total of 4 ml. Cold soraphen was added to 2 μM and dissociation of the bound soraphen was followed by removing 0.5 ml aliquots at various times and applying them to NAP 5 columns to again separate bound from free radiolabel. The ^3H-soraphen in the eluted fractions was quantified by liquid scintillation counting and the data were fit to the following equation: Y=Ymax*e^−k1+NS (FIG. 14).
# [9] = target: BC domain (pCS8); test: competitive binding assay with 3H-soraphen, pCS8; set-up: species or system Ustilago maydis; conditions: positive control, 1 hr incubation; protein (pCS8 or pCS11) not stated; data not shown; read-out: Ki estimate, competitor vs 3H-soraphen
# Description: Binding assays were conducted to detect binding to the BC domain, and thus, enabled identification of test compounds. Methods of conducting binding assays are well known in the art. Direct measurement of the binding of radiolabeled ligands is typically performed by incubating numerous concentrations of radioligand with a constant amount of target peptide under equilibrium binding conditions followed by determining the amount of labeled probe specifically bound. “Specifically bound” is defined as total binding minus non-specific binding, where non-specific binding is determined in the presence of excess unlabled ligand. […] The dissociation constant of the BC domain complexes, for example for soraphen, is from about 10^−4 to about 10^−14 M, and preferably at 10^−7 M to 10^−14 M, and more preferably at least 10^−8 M to 10^−14 M, and still more preferably lower than 2×10^−9 M. Complexes can be formed by covalent or noncovalent interactions. […] A competition binding assay is performed by incubating a constant concentration of target protein and radiolabled ligand with numerous concentrations of test compounds under equilibrium conditions followed by determining the amount of radiolabeled ligand that is specifically bound.
# Competitive Binding Assay. […] Bound ^3H-soraphen was then separated from unbound on NAP 5 columns and quantified by scintillation counting. […]
# [10] = system: Phytophthora infestans ACCase BC domain (pCS15); assay type: binding; conditions: recombinantly expressed
# [11] = system: Magnaporthe grisea BC domain (pCS17); assay type: binding
# [12] = target: pCS204 (wild type full length S. cerevisiae ACCase) (Saccharomyces cerevisiae, UniProt Q00955); assay type: biochemical
# [13] = target: Ustilago ACCase; conditions: published value (Behrbohm thesis 1996); read-out: Ki for soraphen inhibition of Ustilago ACCase activity; cited from earlier work
# [14] = target: WT enzyme (endogenous ACCase, wild type yeast) (Saccharomyces cerevisiae, UniProt Q00955); conditions: cited from earlier work
# [15] = system: Mutant enzyme (endogenous ACCase, mutant yeast); conditions: cited from earlier work
# [16] = target: human ACC1 BC domain (pCS19) (Homo sapiens, UniProt Q13085, Q299K); test: soraphen binding, human ACC1 BC domain
# [17] = target: E. coli BC (pCS201) (Escherichia coli, UniProt P24182); test: 3H-soraphen binding, negative control pCS201
# pCS204 (wild type full length S. cerevisiae ACCase), sequence (Q00955 whole entry): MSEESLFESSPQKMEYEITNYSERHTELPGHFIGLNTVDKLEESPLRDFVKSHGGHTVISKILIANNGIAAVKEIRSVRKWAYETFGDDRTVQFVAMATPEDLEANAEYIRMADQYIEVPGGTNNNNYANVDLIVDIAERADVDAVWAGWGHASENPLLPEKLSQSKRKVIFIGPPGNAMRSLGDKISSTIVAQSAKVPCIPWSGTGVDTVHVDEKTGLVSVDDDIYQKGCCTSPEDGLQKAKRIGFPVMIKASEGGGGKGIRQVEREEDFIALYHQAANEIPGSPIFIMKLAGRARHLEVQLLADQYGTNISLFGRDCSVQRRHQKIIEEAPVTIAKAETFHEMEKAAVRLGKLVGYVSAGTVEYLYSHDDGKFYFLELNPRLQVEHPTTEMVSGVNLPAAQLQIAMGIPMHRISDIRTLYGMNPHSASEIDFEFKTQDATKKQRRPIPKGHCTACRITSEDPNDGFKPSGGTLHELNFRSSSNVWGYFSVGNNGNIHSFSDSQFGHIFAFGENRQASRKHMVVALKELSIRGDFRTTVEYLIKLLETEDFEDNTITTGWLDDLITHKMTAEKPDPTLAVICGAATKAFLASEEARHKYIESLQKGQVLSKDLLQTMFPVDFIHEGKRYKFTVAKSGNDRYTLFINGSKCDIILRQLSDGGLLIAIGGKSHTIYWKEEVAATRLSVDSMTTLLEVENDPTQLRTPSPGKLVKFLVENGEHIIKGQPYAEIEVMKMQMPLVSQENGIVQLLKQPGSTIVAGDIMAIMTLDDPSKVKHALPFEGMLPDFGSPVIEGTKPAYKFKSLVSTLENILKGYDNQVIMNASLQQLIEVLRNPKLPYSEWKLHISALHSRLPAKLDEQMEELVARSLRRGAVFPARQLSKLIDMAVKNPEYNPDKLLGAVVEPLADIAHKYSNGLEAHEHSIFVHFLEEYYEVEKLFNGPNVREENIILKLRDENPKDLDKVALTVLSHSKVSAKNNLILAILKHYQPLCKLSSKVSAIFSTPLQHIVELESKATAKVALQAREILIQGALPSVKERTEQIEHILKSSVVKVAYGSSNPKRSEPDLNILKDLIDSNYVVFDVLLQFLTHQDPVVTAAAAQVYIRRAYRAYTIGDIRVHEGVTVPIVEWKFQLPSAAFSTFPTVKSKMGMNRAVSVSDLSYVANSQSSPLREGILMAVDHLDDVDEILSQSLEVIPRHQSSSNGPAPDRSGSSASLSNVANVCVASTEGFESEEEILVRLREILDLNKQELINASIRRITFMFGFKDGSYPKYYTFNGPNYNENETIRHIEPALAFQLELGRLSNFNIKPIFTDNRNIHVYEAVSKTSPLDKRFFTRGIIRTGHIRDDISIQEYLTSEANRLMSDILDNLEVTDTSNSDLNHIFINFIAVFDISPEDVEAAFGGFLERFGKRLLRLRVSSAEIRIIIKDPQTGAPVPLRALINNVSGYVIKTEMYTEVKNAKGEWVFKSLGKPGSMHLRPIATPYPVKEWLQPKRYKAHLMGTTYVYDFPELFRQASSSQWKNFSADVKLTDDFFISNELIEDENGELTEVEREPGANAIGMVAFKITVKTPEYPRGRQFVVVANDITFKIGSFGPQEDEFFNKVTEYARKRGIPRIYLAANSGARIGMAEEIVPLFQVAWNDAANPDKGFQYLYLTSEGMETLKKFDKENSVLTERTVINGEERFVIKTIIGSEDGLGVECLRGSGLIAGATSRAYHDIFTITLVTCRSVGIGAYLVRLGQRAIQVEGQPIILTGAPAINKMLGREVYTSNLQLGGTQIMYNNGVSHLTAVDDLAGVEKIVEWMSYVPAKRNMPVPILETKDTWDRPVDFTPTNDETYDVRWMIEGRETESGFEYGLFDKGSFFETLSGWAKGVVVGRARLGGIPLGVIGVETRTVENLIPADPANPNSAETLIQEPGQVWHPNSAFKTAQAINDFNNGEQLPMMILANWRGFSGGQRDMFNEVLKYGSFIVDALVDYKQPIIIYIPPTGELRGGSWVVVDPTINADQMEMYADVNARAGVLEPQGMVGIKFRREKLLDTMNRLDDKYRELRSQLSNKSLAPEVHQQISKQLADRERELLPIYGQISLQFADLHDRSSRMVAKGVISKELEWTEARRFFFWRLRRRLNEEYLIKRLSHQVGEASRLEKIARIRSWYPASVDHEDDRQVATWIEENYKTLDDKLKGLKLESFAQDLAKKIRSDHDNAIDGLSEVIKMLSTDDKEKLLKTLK
# WT enzyme (endogenous ACCase, wild type yeast), sequence (Q00955 whole entry): as above
# S. cerevisiae ACCase BC domain, wild type (pCS16), N-terminal His-tag, sequence (Q00955 2-581): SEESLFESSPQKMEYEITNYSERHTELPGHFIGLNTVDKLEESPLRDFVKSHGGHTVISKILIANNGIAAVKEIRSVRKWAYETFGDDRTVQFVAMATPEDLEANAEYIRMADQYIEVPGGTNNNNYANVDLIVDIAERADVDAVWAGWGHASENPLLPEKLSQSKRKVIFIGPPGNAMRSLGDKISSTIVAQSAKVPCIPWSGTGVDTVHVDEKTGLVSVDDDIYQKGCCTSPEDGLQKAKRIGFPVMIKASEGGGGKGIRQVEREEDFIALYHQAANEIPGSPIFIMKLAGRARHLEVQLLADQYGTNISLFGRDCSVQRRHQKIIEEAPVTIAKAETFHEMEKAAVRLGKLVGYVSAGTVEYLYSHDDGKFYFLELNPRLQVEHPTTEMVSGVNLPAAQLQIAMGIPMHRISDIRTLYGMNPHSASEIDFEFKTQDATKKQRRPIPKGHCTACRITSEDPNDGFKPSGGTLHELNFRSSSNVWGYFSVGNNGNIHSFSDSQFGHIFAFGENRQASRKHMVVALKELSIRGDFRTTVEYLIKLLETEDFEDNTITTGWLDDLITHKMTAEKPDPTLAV
compound,measurement,setting,value
"CO[C@H]1CCCC[C@@H](c2ccccc2)OC(=O)[C@@H](C)[C@@]2(O)O[C@H]([C@@H](C)[C@H](O)[C@H]2OC)[C@@H](C)/C=C/[C@H]1OC [Soraphen, soraphen A]",Kd,[1],1.3 nM
same,Ki,[2],2.2 nM
same,Kd,[3],0.4 nM
same,Kd,[4],0.4 nM
same,Kd,[5],0.7 nM
CO[C@H]1CCCC[C@@H](c2ccccc2)OC(=O)[C@@H](C)[C@@]2(O)O[C@H]([C@@H](C)[C@H](O)[C@H]2OC)[C@@H](C)/C=C/[C@H]1OC [soraphen A],Kd,[6],1.5 nM
same,Kd,[7],1.6 nM
same,half-life of dissociation (off rate),[8]; 3H-soraphen displaced with 2 μM cold soraphen,10.7 min
same,kon (on-rate),[8]; calculated from Kd=koff/kon,931000 M⁻¹ s⁻¹
same,Ki,[9],1.1 nM
same,soraphen binding to Phytopthora BC domain,[10],high-affinity
same,soraphen binding to Magnaporthe BC domain,[11],high affinity
same,"Relative Enzymatic Activity (%), pCS204",[12]; +1.5 ng/mL soraphen A,92.0%
same,"Relative Enzymatic Activity (%), pCS204",[12]; +1.5 μg/mL soraphen A,11.6%
same,"Relative Enzymatic Activity (%), pCS204",[12]; +150 μg/mL soraphen A,7.5%
same,Ki,[13],1.4 nM
same,"Relative Enzymatic Activity (%), WT enzyme",[14]; +1.5 ng/mL soraphen A,71.8%
same,"Relative Enzymatic Activity (%), WT enzyme",[14]; +1.5 μg/mL soraphen A,1.0%
same,"Relative Enzymatic Activity (%), WT enzyme",[14]; +150 μg/mL soraphen A,0.8%
same,"Relative Enzymatic Activity (%), Mutant enzyme",[15]; +1.5 ng/mL soraphen A,79.4%
same,"Relative Enzymatic Activity (%), Mutant enzyme",[15]; +1.5 μg/mL soraphen A,74.9%
same,"Relative Enzymatic Activity (%), Mutant enzyme",[15]; +150 μg/mL soraphen A,74.7%
same,soraphen binding to purified pCS19 protein,[16],high affinity
same,soraphen binding to pCS201,[17],did not exhibit high affinity soraphen binding
"avidin: avidin, inhibitor of the biotin-dependent ACCase activity in Table 4","Relative Enzymatic Activity (%), pCS204",[12]; +250 μg/ml avidin,2.1%
same,"Relative Enzymatic Activity (%), WT enzyme",[14]; +250 μg/ml avidin,0.4%
same,"Relative Enzymatic Activity (%), Mutant enzyme",[15]; +250 μg/ml avidin,0.1%
